Read-outs that look alike come from different tables or passages of the source. Bounds are passed on as bounds.

Experiment [1] concerns H3K27me3 mark in HeLa cells. As to the kind of experiment: H3K27me3 MSD Hela Assay. Format: cell-based. As for the experimental part:
Trypsinized HeLa cells were counted and diluted in 10% DMEM (Life Technologies, Cat. #10569) to 5000 cells/75 μL. Seventy-five μL of cells were place in each well of a 96-well flat-bottomed plate and incubated at 37° C. for 4 hours. Twenty-five μL of test compound (at various concentrations) was added to the cells and incubation continued at 37° C. for 96 hours. Media was then removed and the cells rinsed once with ice cold PBS. Forty μL of ice-cold MSD Buffer AT (10 mM HEPES, pH 7.9, 5 mM MgCl2, 0.25M sucrose, Benzonase (1:10000), 1% Triton X-100 supplemented with fresh 1× Protease Inhibitor cocktail and 1 mM 4-(2-Aminoethyl)benzenesulfonyl fluoride hydrochloride (AEBSF)) was added to each well and the plates placed on ice for 30 minutes. Ten μL of 5M NaCl was then added to each well and incubation on ice continued for another 15 minutes. The material in each well was suspended pipetting up and down and then transferred to a new 96 well plate. […]
The antibody mix was then removed and the wells washed with Blocker A. One hundred-fifty μL of freshly prepared 1×MSD Read Buffer (Meso-Scale Discovery; Cat #R927C-2) was then added to each well and the plates read on a MSD Sector 2400 Plate Reader.
Data was analyzed using Assay Assistant (Constellation Pharmaceuticals In-house product) and Activity Base (IDBS Ltd, Surrey, UK) template. […] Readout of DMSO wells were used to normalize the data. […]

In experiment [2] the target is Y641N EZH2 (Homo sapiens, UniProt Q15910, Y641N). Put plainly: Y641N EZH2 assay, H3K27Me2 oligonucleosomes as substrate. Format: biochemical. The protocol:
(§1) Assays were carried out by mixing rPRC2 together with biotinylated oligonucleosome substrates in the presence of the radio-labeled enzyme co-factor, S-adenosyl-L-methionine (^3H SAM) (Perkin Elmer) and monitoring the enzymatically mediated transfer of tritiated methyl groups from ^3H SAM to histone lysine residues. The amount of resulting tritiated methyl histone product was measured by first capturing the biotinylated oligonucleosomes in streptavidin (SAV) coated FlashPlates (Perkin Elmer), followed by a wash step to remove un-reacted ^3H SAM, and then counting on a TopCount NXT 384 well plate scintillation counter (Perkin Elmer). The final assay conditions for EZH2 were as follows: 50 mM Tris Buffer pH 8.5, 1 mM DTT, 69 μM Brij-35 detergent, 5.0 mM MgCl2, 0.1 mg/mL BSA, 0.2 μM ^3H SAM, 0.2 μM biotinylated oligonucleosomes, 3.6 μM H3K27me3 peptide and 2 nM EZH2.
(§2) A 12.5 μL volume of the HMT enzyme, H3K27me3 peptide and oligonucleosome substrate in assay buffer was added to each well of the assay plate using a Multidrop Combi (Thermo-Fisher). Compounds were pre-incubated with the enzyme for 20 min, followed by initiation of the methyltransferase reaction by addition of 12.5 μL of ^3H SAM in assay buffer (final volume=25 μL). The final concentrations of compounds ranged from a top default concentration of 80 μM down to 0.16 μM in ten 2-fold dilution steps. Reactions were carried out for 60 minutes and quenched with 20 μL per well of 1.96 mM SAH, 50 mM Tris pH 8.5, 200 mM EDTA. Stopped reactions were transferred to SAV coated Flash-plates (Perkin Elmer), incubated for 120 min, washed with a plate washer, and then read on the TopCount NXT (1.0 min/well) to measure the amount of methyl histone product formed during the reaction.

For experiment [3], the system named is H3K27me3 mark in HeLa cells. Put plainly: H3K27me3 Alpha Hela Assay (AlphaLISA). Format: cell-based. The note with it: 72 hrs incubation. As for the experimental part:
H3K27me3 Alpha Hela Assay (AlphaLISA).
Ten different doses of each test compound (in a series of 3-fold dilutions) were plated in duplicate 384-well tissue culture treated plates (Catalog #781080; Greiner Bio One; Monroe, N.C.). Hela cells grown in culture were trypsinized and counted using a Countess® cell counter (Catalog #C10281; Life Technologies, Grand Island, N.Y.). Cell were diluted to 67,000 cells per mL in 10% DMEM (Catalog #10569-010 Life Technologies, Grand Island, N.Y.) and 15 μL (1,000 cells) were plated into each well using the Biotek MicroFlo™ Select Dispenser (BioTek Instruments, Inc. Vermont, USA),) of the 384-well plate. Plates were incubated at 37° C./5% CO2 for 72 hrs. One of the duplicate plates was processed for HeLa assay and the other for viability.
To the plate processed for AlphaLISA was added 5 μL per well Cell-Histone Lysis buffer (1×) (Catalog #AL009F1 Perkin Elmer; Waltham, Mass.) and the plate was incubated at RT for 30 minutes on a plate shaker with low speed (Model #4625-Q Thermo Scientific; Waltham, Mass.). Then, 10 μL per well Histone Extraction buffer (catalog #AL009F2; Perkin Elmer; Waltham, Mass.) was added and the plate further incubated at RT for 20 min on plate shaker with low speed. To each well was then added 10 μL per well of a 5× mix of anti-K27me3 acceptor beads plus Biotinylated anti-Histone H3 (C-ter) Antibody (diluted to 3 nM final) (Catalog #AL118 Perkin Elmer; Waltham, Mass.). Dilution of the acceptor beads and then anti-Histone H3 was with 1× Histone Detection buffer (Catalog #AL009F3 Perkin Elmer; Waltham, Mass.) which was produced diluted from the 10× stock provided. The plate was sealed with an aluminum plate sealer and incubated at 23° C. for 60 min. […] The plates were then read using an EnVision-Alpha Reader (model #2104 Perkin Elmer; Waltham, Mass.).
Data from both assays was analyzed using Assay Assistant (Constellation Pharmaceuticals In-house product) and Activity Base (IDBS Ltd, Surrey, UK) template. […] Readout of DMSO wells were used to normalize the data. […]
Background: Bead proximity is the source of the signal in Alpha formats.

The target of experiment [4] is EZH2 (Homo sapiens, UniProt Q15910). Put plainly: EZH2 assay: rPRC2 methyltransferase, 3H SAM FlashPlate. Format: biochemical. As to conditions: 0.2 μM 3H SAM, 2 nM EZH2. The protocol: as §1, §2
Sequence of EZH2 (Q15910 whole entry): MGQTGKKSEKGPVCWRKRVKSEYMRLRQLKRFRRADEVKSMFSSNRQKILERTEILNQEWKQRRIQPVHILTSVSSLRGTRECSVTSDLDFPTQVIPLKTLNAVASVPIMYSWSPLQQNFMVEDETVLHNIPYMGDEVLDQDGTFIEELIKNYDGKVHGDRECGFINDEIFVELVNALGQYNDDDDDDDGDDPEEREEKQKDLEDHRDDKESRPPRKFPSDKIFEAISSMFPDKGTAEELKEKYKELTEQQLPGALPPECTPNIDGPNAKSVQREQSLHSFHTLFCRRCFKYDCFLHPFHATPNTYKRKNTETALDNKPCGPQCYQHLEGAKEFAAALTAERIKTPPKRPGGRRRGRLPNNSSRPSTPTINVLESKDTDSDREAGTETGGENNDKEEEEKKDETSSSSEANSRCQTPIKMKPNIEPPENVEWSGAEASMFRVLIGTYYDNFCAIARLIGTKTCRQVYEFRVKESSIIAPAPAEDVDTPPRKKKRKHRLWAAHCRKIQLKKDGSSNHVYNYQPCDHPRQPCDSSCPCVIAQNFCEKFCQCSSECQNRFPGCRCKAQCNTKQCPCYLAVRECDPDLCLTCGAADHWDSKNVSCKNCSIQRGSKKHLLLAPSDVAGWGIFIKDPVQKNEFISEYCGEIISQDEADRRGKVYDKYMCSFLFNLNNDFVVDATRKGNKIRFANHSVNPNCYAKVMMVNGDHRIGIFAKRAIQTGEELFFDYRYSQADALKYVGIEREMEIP
Sequence of EZH2 (O75530 whole entry partner): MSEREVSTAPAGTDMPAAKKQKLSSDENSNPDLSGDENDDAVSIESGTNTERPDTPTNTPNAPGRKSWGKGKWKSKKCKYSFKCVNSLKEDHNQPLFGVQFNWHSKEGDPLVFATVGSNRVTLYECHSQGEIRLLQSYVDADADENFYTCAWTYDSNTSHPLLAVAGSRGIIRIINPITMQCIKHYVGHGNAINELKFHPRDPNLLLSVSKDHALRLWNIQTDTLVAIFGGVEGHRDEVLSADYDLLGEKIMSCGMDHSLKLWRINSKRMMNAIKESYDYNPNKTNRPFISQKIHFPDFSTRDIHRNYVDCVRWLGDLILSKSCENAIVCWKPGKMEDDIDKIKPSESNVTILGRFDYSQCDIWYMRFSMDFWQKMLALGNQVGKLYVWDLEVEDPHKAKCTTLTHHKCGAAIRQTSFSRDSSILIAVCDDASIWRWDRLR
Sequence of EZH2 (Q15022 whole entry partner): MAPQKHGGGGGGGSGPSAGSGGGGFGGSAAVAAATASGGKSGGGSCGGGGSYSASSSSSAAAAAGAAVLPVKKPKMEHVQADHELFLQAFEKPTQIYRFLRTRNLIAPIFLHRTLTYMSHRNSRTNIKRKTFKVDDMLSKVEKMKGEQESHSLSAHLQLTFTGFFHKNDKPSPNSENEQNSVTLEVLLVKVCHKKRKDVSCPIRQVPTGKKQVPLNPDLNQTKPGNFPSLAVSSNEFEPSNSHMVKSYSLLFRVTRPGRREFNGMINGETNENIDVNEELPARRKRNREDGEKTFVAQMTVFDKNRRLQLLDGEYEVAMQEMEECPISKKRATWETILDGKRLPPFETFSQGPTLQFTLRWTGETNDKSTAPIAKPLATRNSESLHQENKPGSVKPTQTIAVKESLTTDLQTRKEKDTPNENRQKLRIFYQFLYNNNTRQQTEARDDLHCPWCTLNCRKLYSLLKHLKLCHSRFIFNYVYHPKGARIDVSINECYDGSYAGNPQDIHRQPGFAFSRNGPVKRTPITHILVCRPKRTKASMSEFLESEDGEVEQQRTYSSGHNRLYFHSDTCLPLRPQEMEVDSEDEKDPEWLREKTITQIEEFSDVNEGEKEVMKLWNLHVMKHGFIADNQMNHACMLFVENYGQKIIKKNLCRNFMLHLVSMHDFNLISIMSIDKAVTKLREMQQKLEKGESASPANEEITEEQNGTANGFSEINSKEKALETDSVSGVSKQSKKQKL

Sequence of Y641N EZH2 (Q15910 whole entry Y641N): as the sequence (Q15910 whole entry) above, with Y641N counted along it
Sequence of Y641N EZH2 (O75530 whole entry partner): as the sequence (O75530 whole entry partner) above
Sequence of Y641N EZH2 (Q15022 whole entry partner): as the sequence (Q15022 whole entry partner) above

A word on the EC50: it is the midpoint of the concentration-response curve. The low end stands for greater potency, the high end for weaker potency. One may read the IC50 as the concentration needed to halve the response being measured. Consider `COc1cc(C)[nH]c(=O)c1CNC(=O)c1c(C)n(C(C)C2CCC(F)(F)CC2)c2ccccc12` (racemic) [Compound 304, (±)-1-(1-(4,4-difluorocyclohexyl)ethyl)-N-((4-methoxy-6-methyl-2-oxo-1,2-dihydropyridin-3-yl)methyl)-2-methyl-1H-indole-3-carboxamide], for which the half-maximal effective concentration (EC50) in experiment [1] (Homo sapiens) and in experiment [3] (Homo sapiens) was less than 0.4 µM throughout. Moreover, the IC50 in experiment [2] is less than 0.1 µM; in experiment [4] (EZH2 IC50, rPRC2, biotinylated oligonucleosomes) it was less than 0.1 µM.

Consider `CCS(=O)(=O)N1CCC(C(C)n2c(C)c(C(=O)NCc3c(OC)cc(C)[nH]c3=O)c3ccccc32)CC1` (single isomer, unassigned) [Compound 345, (R or S)-1-(1-(1-(ethylsulfonyl)piperidin-4-yl)ethyl)-N-((4-methoxy-6-methyl-2-oxo-1,2-dihydropyridin-3-yl)methyl)-2-methyl-1H-indole-3-carboxamide], for which the EC50 in experiment [3] (Homo sapiens) was less than 0.4 µM.

`COc1cc(C)[nH]c(=O)c1CNC(=O)c1c(C)n(C(C)C2CCCNC2)c2ccccc12` (stereo not drawn) [Compound 315] yielded an EC50 in experiment [1] greater than 10 µM.

Regarding “(R or S)-1-(1-(4-(isopropylsulfonyl)cyclohexyl)ethyl)-N-((4-methoxy-6-methyl-2-oxo-1,2-dihydropyridin-3-yl)methyl)-2-methyl-1H-indole-3-carboxamide [Compound 355]”, the half-maximal inhibitory concentration (IC50) was less than 0.1 µM in experiment [2] (Y641N EZH2 mutant enzyme, H3K27Me2 oligonucleosomes, read-out: Y641N EZH2 IC50) and less than 0.1 µM in experiment [4] (rPRC2, biotinylated oligonucleosomes, read-out: EZH2 IC50). In addition, in experiment [3], the concentration for a half-maximal effect (EC50) was less than 0.4 µM.

(Values after USRE47428E1, “Modulators of methyl modifying enzymes, compositions and uses thereof” (Constellation Pharmaceuticals, Inc., priority 2013, dated 2019).)
